These are literature values, as cited in EP0665714B1, “GRANULAR WATER SOLUBLE OR HYGROSCOPIC AGRICULTURAL FORMULATIONS AND METHODS OF MAKING THEM” (BASF CORPORATION, priority 1992, dated 1994).

For the data set the following is noted: in general.

Turning to `C[N+]1(C)CCCCC1.[Cl-]` [mepiquat chloride, 1,1-dimethylpiperidinium chloride], the water solubility result was “more than 600 g/l”.
